According to PubChem BioAssay (NCI):
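Growth conditions: 96-well plates. Treatment: test compound, 48 hours, 5 concentrations. Analysis: linear interpolation between bracketing concentrations; unreached endpoints set to highest concentration. The concentration for full growth arrest is given as TGI.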

Columns and labels:
Test in all cases: NCI tumour cell line growth inhibition, 48 h
MOLT-4 leukemia = tested on: MOLT-4 leukemia
SF-295 CNS = tested on: SF-295 CNS
M14 melanoma = tested on: M14 melanoma
SK-MEL-5 melanoma = tested on: SK-MEL-5 melanoma
HT29 colon = tested on: HT29 colon
NCI-H23 lung = tested on: NCI-H23 lung
TK-10 renal = tested on: TK-10 renal
UO-31 renal = tested on: UO-31 renal
CCRF-CEM leukemia = tested on: CCRF-CEM leukemia
K-562 leukemia = tested on: K-562 leukemia
CAKI-1 renal = tested on: CAKI-1 renal
ACHN renal = tested on: ACHN renal
UACC-257 melanoma = tested on: UACC-257 melanoma
SK-MEL-2 melanoma = tested on: SK-MEL-2 melanoma
IGROV1 ovarian = tested on: IGROV1 ovarian
OVCAR-3 ovarian = tested on: OVCAR-3 ovarian
SK-MEL-28 melanoma = tested on: SK-MEL-28 melanoma
SNB-19 CNS = tested on: SNB-19 CNS
RPMI-8226 leukemia = tested on: RPMI-8226 leukemia
XF 498 CNS = tested on: XF 498 CNS
HOP-62 NSCLC = tested on: HOP-62 NSCLC
A549 NSCLC = tested on: A549 NSCLC
DMS 114 small cell lung = tested on: DMS 114 small cell lung
SF-539 CNS = tested on: SF-539 CNS
SW-620 colon = tested on: SW-620 colon
M19-MEL melanoma = tested on: M19-MEL melanoma
NCI-H522 lung = tested on: NCI-H522 lung
HL-60(TB) leukemia = tested on: HL-60(TB) leukemia
LOX IMVI melanoma = tested on: LOX IMVI melanoma
HCT-116 colon = tested on: HCT-116 colon
HCT-15 colon = tested on: HCT-15 colon
SF-268 CNS = tested on: SF-268 CNS
KM12 colon = tested on: KM12 colon
SNB-75 CNS = tested on: SNB-75 CNS
EKVX NSCLC = tested on: EKVX NSCLC
NCI-H460 lung = tested on: NCI-H460 lung
NCI-H226 lung = tested on: NCI-H226 lung
RXF 393 renal = tested on: RXF 393 renal
OVCAR-4 ovarian = tested on: OVCAR-4 ovarian
SR leukemia = tested on: SR leukemia
DMS 273 small cell lung = tested on: DMS 273 small cell lung
SNB-78 CNS = tested on: SNB-78 CNS
UACC-62 melanoma = tested on: UACC-62 melanoma
KM20L2 colon = tested on: KM20L2 colon
786-0 renal = tested on: 786-0 renal
U251 CNS = tested on: U251 CNS
A498 renal = tested on: A498 renal
OVCAR-8 ovarian = tested on: OVCAR-8 ovarian
DLD-1 colon = tested on: DLD-1 colon
RXF-631 renal = tested on: RXF-631 renal
SK-OV-3 ovarian = tested on: SK-OV-3 ovarian
COLO 205 colon = tested on: COLO 205 colon

Measured: TGI

CC1CCN(CCC(=O)CC(c2ccccc2)c2c(O)c3ccccc3oc2=O)CC1 (configuration not stated)
> 100 µM: all assays above
